Patent US10273233B2, “Inhibitors of influenza viruses replication” (Vertex Pharmaceuticals Incorporated, priority 2015, dated 2019)

Key:
Experiment in all cases: 3-day CP assay in MDCK cells
A/NWS/33 = type: cell-based, influenza A
A/Aichi/2/68 = type: cell-based; settings: Influenza A virus
A/Chelyabinsk/1/200 = type: cell-based; settings: Influenza A virus
A/Fukushima/141/2006 = type: cell-based; settings: Influenza A virus
A/Hawaii/2/2006 = type: cell-based; settings: Influenza A virus
A/St. Petersburg8/2006 = type: cell-based; settings: Influenza A virus
A/Henan/Jinshui/147/2007 = type: cell-based; settings: Influenza A virus
[1] = system: A/California/07/2009 NYMC, X-179A; type: cell-based; settings: Influenza A virus
A/Virginia/ATCC2/2009 = type: cell-based; settings: Influenza A virus

CC(C)(C)[C@@H](CC(=O)O)Nc1nc(-c2c[nH]c3ncc(F)cc23)ncc1F [Compound (1)]
EC50 (A/NWS/33): 1.7 nM | EC50 (A/Aichi/2/68): 4.4 nM | EC50 (A/Chelyabinsk/1/200): 3.1 nM | EC50 (A/Fukushima/141/2006): 1.5 nM | EC50 (A/Hawaii/2/2006): 1.2 nM | EC50 (A/St. Petersburg8/2006): 1.3 nM | EC50 (A/Henan/Jinshui/147/2007): 19 nM | EC50 [1]: 10 nM | EC50 (A/Virginia/ATCC2/2009): 1.4 nM
